The record followed here is paper PMC5791972 (PLoS ONE, 2018).

Where two headings read alike, the source gives them in different places.

A short description of series [1]: in vivo.
For series [2], the target named is T1, human TRPC5 (hTRPC5) (Homo sapiens, UniProt Q9UL62).
T1 construct: The cDNAs for various full-length ion channels were subcloned into pcDNA5/TO; expressed in transfected cells
Put plainly: Fluorometric calcium influx assay. The conditions noted are these: indicator-assisted calcium influx, 1 pM to 1 μM, n = 8. Format: cell-based.

In series [3] the target is T2, A3 (h) (Homo sapiens, UniProt P0DMS8).
T2 construct: host or cells: HEK-293 cells
T2 sequence (P0DMS8 1-318): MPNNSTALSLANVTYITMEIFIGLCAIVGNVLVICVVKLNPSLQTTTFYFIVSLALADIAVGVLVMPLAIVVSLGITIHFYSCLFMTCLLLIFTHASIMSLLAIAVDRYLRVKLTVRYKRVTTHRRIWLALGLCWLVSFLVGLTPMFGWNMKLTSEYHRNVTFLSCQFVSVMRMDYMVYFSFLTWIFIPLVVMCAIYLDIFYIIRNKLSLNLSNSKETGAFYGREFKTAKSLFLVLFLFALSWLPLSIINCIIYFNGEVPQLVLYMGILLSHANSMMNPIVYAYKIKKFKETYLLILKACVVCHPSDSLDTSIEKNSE
Format: binding. The following applies: 1.0E-06 M.

The target in series [4] is T3, α2A (h) (Homo sapiens, UniProt P08913).
T3 construct: host or cells: CHO cells
T3 sequence (P08913 1-465): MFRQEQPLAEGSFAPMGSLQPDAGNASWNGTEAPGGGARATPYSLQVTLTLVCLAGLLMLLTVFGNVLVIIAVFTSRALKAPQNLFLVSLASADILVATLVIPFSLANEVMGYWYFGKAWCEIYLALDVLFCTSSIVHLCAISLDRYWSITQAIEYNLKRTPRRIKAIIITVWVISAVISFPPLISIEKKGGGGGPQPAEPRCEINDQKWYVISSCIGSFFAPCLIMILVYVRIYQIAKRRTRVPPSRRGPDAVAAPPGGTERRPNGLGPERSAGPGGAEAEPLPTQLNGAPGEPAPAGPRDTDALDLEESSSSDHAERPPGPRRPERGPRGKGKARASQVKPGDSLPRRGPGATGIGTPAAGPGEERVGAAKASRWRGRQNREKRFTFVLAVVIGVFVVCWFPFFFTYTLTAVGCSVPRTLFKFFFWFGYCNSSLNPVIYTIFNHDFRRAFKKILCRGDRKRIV
Format: binding. The conditions noted are these: 1.0E-06 M.

Series [5] addresses CCK2 (CCKB) (h) (Homo sapiens, UniProt P32239). Format: binding. The following applies: 1.0E-06 M.
In series [6] the target is T4, MC1 (Mus musculus, UniProt Q01727).
T4 construct: (endogenous); host or cells: B16-F1 cells
T4 sequence (Q01727 whole entry): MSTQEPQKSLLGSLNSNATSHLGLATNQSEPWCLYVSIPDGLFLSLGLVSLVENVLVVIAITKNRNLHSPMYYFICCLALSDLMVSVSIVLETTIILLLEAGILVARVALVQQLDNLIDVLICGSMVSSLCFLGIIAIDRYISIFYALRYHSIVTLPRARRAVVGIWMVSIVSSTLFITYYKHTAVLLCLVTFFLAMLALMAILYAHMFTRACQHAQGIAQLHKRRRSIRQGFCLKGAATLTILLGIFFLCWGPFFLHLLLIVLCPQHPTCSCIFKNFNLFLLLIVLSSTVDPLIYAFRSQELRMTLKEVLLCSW
Format: binding. The conditions noted are these: 1.0E-06 M.

The target of series [7] is T5, NK2 (h) (Homo sapiens, UniProt P21452).
T5 construct: host or cells: CHO cells
T5 sequence (P21452 1-398): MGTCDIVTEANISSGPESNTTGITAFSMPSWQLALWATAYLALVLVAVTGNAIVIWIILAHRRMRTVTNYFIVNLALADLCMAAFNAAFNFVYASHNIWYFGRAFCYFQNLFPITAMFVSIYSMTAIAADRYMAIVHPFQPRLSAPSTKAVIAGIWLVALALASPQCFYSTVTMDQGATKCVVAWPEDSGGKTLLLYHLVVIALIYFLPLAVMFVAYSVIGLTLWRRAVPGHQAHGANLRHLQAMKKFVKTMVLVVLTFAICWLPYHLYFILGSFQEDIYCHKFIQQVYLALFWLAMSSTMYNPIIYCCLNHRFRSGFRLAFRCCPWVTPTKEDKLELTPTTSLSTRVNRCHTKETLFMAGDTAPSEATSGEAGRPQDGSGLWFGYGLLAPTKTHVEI
Format: binding. The conditions noted are these: 1.0E-06 M.

Series [8] addresses T6, 5-HT2C (h) (Homo sapiens, UniProt P28335).
T6 construct: host or cells: HEK-293 cells
T6 sequence (P28335 33-458): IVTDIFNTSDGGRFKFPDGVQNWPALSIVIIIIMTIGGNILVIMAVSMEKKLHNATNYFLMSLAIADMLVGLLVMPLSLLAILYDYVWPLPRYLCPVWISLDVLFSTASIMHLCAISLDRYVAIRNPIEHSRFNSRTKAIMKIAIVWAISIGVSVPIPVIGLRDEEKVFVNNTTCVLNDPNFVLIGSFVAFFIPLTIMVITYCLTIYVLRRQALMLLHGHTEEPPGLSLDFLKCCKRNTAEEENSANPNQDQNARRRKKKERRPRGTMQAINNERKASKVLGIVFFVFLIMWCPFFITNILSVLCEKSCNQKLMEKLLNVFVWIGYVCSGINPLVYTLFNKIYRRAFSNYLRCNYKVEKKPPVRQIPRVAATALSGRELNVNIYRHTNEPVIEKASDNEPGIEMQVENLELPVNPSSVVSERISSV
Format: binding. The following applies: 1.0E-06 M.

Series [9] deals with MMP-9 (h) (Homo sapiens, UniProt P14780). Put plainly: biochemical. Format: biochemical. The following applies: 1.0E-06 M.
Chain of MMP-9 (h) (P14780 94-707): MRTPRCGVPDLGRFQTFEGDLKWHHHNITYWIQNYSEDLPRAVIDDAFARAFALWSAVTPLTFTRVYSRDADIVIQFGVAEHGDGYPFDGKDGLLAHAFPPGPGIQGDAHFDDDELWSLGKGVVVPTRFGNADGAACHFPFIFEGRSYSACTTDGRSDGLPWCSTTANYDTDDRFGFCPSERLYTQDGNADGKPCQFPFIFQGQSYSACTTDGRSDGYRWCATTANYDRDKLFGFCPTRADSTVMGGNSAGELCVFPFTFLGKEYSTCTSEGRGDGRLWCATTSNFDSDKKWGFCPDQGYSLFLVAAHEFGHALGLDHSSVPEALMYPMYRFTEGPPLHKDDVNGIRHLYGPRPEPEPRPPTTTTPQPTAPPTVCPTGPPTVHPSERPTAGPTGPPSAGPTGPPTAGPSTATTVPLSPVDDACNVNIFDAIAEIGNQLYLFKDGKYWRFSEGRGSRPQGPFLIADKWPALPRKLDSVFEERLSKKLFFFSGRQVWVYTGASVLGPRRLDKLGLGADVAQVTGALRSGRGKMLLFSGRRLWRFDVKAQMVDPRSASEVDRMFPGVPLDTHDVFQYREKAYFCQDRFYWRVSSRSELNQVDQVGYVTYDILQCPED
Series [10] addresses p38α kinase (h) (Homo sapiens, UniProt Q16539). Put plainly: enzyme assay. Format: biochemical. The following applies: 1.0E-06 M.
In series [11] the target is A2A (h) (Homo sapiens, UniProt P29274). The conditions noted are these: 1.0E-06 M.
Chain of A2A (h) (P29274 whole entry): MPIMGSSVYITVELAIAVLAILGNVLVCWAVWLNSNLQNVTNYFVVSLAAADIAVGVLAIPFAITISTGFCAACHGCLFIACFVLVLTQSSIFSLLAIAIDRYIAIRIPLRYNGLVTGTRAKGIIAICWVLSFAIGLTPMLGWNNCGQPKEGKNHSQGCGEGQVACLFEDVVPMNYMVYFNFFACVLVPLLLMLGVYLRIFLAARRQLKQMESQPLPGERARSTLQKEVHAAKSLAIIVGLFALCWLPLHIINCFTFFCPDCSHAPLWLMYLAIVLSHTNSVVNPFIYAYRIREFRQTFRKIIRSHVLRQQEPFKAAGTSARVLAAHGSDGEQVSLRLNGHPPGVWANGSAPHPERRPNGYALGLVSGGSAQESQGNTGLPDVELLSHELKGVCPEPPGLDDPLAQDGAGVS
For series [12], the target named is GABAB(1b) (h) (Homo sapiens, UniProt Q9UBS5). Put plainly: biochemical.
Chain of GABAB(1b) (h) (Q9UBS5 1-844 isoform Q9UBS5-2): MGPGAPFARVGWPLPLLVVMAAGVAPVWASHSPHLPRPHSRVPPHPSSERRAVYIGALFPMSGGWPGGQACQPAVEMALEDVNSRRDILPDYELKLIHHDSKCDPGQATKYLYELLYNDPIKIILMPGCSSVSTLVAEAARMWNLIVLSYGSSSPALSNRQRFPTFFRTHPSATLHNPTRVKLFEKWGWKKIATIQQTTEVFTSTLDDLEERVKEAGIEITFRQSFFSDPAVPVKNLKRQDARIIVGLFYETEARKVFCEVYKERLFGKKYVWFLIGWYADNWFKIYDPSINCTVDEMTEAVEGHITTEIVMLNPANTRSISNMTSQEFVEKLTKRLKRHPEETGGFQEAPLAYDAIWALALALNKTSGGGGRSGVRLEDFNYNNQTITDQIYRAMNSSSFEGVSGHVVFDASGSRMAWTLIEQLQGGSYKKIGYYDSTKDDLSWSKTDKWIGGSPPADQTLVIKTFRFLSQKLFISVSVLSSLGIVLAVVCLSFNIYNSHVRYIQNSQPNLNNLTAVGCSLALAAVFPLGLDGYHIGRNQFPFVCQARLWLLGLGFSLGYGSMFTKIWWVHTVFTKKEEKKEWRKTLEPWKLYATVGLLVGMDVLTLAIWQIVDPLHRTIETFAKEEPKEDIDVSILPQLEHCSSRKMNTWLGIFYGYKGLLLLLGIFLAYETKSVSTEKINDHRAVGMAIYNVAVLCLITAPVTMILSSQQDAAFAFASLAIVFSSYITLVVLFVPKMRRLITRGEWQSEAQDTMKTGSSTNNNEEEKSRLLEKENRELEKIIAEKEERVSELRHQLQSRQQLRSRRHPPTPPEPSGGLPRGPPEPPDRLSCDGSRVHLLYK
Chain of GABAB(1b) (h) (O75899 42-941 partner): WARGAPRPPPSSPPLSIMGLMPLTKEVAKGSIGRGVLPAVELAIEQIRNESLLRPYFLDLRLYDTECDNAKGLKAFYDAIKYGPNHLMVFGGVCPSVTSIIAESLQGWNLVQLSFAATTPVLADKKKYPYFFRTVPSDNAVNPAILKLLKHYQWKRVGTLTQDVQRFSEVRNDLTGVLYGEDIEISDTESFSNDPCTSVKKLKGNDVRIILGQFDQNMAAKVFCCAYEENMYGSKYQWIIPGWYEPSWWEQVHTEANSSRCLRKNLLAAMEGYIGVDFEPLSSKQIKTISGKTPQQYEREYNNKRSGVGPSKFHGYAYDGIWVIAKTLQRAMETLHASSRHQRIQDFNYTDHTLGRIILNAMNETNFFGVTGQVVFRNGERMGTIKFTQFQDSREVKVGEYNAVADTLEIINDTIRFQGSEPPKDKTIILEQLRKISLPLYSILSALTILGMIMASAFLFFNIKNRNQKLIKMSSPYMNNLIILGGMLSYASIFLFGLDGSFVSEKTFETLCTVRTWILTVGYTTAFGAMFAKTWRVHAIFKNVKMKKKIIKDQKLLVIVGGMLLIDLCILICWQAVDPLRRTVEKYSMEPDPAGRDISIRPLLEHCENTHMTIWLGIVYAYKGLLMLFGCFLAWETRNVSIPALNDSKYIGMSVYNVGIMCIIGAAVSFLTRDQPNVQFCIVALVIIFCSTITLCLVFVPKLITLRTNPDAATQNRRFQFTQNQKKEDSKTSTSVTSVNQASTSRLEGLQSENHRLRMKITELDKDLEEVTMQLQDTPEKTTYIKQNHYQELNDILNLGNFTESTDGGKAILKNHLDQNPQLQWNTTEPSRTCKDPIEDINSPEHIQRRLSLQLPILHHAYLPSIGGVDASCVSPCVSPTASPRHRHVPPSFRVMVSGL
The mark [13] stands for this setting: Swiss Webster, mouse, iv, 1 mg/kg.
Where [14] appears, read: Swiss Webster, mouse, po, 10 mg/kg.
[15] abbreviates: male, C57BL/6, mouse, iv, 1 mg/kg.
[16] abbreviates: male, C57BL/6, mouse, po, 10 mg/kg.

Chain of CCK2 (CCKB) (h) (P32239 whole entry): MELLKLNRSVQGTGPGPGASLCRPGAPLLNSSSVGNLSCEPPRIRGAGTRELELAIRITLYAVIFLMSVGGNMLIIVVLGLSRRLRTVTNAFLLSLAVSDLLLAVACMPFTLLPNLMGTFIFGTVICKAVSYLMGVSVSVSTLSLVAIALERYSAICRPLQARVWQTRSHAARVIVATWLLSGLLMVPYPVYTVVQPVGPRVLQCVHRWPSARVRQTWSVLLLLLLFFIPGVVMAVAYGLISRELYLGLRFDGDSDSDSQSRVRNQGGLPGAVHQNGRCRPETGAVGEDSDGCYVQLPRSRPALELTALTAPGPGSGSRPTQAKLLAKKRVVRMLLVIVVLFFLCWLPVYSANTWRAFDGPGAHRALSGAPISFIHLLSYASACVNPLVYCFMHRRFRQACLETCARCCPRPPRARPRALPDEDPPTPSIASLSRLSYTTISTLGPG
Chain of p38α kinase (h) (Q16539 whole entry): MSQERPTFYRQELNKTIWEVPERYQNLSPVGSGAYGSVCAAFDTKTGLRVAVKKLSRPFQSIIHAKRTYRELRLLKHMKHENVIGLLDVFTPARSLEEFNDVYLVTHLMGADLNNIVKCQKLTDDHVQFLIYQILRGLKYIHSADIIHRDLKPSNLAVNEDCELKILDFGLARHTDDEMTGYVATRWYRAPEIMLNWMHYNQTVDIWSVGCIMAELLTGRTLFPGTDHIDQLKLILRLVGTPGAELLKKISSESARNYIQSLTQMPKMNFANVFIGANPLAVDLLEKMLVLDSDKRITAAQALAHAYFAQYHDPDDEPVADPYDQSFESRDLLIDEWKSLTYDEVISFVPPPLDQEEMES
T1 sequence (Q9UL62 whole entry): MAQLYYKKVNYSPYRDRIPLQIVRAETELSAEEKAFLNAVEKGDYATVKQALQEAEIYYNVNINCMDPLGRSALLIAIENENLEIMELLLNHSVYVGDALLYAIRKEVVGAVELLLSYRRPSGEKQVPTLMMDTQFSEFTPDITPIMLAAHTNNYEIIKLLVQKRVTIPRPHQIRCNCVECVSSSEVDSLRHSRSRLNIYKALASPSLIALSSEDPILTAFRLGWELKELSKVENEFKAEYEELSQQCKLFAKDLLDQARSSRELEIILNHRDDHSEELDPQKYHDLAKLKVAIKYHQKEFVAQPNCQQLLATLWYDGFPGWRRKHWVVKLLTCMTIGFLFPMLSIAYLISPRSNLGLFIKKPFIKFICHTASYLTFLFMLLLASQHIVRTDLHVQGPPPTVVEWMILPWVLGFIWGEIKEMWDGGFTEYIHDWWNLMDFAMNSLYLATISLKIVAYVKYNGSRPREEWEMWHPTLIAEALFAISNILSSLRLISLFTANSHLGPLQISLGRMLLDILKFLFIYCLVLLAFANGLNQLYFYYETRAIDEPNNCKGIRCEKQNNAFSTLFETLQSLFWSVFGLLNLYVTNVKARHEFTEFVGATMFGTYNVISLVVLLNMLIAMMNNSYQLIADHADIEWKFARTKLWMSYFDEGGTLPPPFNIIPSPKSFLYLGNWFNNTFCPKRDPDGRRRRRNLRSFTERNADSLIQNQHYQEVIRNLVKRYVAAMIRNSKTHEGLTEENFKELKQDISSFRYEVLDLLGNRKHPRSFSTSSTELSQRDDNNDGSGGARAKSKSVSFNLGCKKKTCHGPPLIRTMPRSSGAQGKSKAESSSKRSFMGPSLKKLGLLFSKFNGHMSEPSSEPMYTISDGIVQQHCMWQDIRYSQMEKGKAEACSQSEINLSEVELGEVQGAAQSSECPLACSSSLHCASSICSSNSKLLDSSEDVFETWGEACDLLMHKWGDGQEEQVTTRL

Consider `Cn1c(=O)n(CCCO)c(=O)c2c1nc(Oc1cccc(Cl)c1)n2Cc1ccc(Cl)cc1` [HC-070], for which the Vd (as a rule, the apparent volume that relates the amount in the body to the concentration in plasma or blood) in series [1] (setting [13]) was 2.2 L/kg; in series [1] (setting [15]) it was 1.5 L/kg. The clearance (in general, a measure of how efficiently the substance is removed, as volume per time) in [1] (setting [13]) was 11 mL/min/kg; in series [1] (setting [15]) it was 13 mL/min/kg. For the same compound, the half-life (commonly how long it takes for the measured level to halve) in series [1] (setting [13]) was 3.6 h; in series [1] (setting [14]) it was 2.7 h. Also, the Tmax in series [1] (setting [14]) and in series [1] (setting [16]) was 1 h throughout. For the same compound, the concentration at 2 h in series [1] (male, C57BL/6, mouse, iv, 1 mg/kg, CBR (concentration in brain)) was determined as 299 ± 11 nM; in [1] (male, C57BL/6, mouse, iv, 1 mg/kg, CPL (concentration in plasma)), 339 ± 66 nM; in series [1] (male, C57BL/6, mouse, po, 10 mg/kg, CBR (concentration in brain)), 525 ± 72 nM; in series [1] (male, C57BL/6, mouse, po, 10 mg/kg, CPL (concentration in plasma)) it was 583 ± 108 nM. The Cmax – broadly, the highest concentration seen after dosing – in [1] (setting [16]) stood at 937 nM.

Consider `Cn1c(=O)n(CCCO)c(=O)c2c1nc(Oc1cccc(OC(F)(F)F)c1)n2Cc1ccc(Cl)cc1` [HC-608], for which the IC50 (as a rule, the concentration needed to halve the response being measured) in [2] was 6.2 ± 0.5 nM. Further, the inhibition (as a rule, the change of the read-out against control, counted positive when it falls) at 1 µM in [3] (read-out: % Inhibition 1st) is 28.3%; in series [3] (read-out: % Inhibition 2nd), 36.4%; in series [3] (read-out: % Inhibition Mean), 32.3%; in series [4] (read-out: % Inhibition 1st), -14.9%; in [4] (read-out: % Inhibition 2nd), -3.7%; in series [4] (read-out: % Inhibition Mean), -9.3%. Also, the inhibition at 1 µM in series [5] (read-out: % Inhibition 1st) was -13.8%; in series [5] (read-out: % Inhibition 2nd), -0.7%; in [5] (read-out: % Inhibition Mean) it was -7.2%; in series [6] (read-out: % Inhibition 1st), 1%; in [6] (read-out: % Inhibition 2nd), -3.6%; in series [6] (read-out: % Inhibition Mean), -1.3%. The inhibition at 1 µM in [7] (read-out: % Inhibition 1st) is -10%; in series [7] (read-out: % Inhibition 2nd), 18.9%; in series [7] (read-out: % Inhibition Mean), 4.4%; in series [8] (read-out: % Inhibition 1st), 12.1%; in series [8] (read-out: % Inhibition 2nd), 12.6%; in series [8] (read-out: % Inhibition Mean) it was 12.3%. The inhibition at 1 µM in series [9] (read-out: % Inhibition 1st) is 8.7%; in [9] (read-out: % Inhibition 2nd), 17.2%; in series [9] (read-out: % Inhibition Mean), 13%; in [12] (read-out: % Inhibition 1st), -9%; in series [12] (read-out: % Inhibition 2nd), -7.8%; in series [12] (read-out: % Inhibition Mean), -8.4%. The “% Inhibition 1st” value is listed as -0.9% in series [10] and 20.8% in series [11]. Besides, the “% Inhibition 2nd” value is given as -1.2% in [10] and 31.1% in series [11]. Moreover, the “% Inhibition Mean” value is recorded as -1.1% in series [10] and 25.9% in series [11].
